In patent US10506808B2, “Composition and rodenticide bait comprising difethialone and method for controlling target rodent pests” (priority 2015, dated 2019):
Like-named read-outs stand apart in the source and are kept apart here.

Experiments:
[1] = format: in vivo, Rattus norvegicus; conditions: about 3.4 mg/kg difethialone per os (40% homo-, 60% hetero-stereoisomer, each racemic), mean of six rats
Experimental: About 0.525 g (±0.025 g) of rat liver is weighed out accurately and placed in a 50 mL polypropylene tube. 10 mL of acetone are added and the suspension is homogenized using an Ultra-Turrax® homogenizer/disperser for a time of about 30 seconds. The homogenizer/disperser shaft is rinsed with hot water and then twice with 20 mL of acetone in a polypropylene tube. The homogenate is centrifuged for 5 minutes at a centrifugation speed of 3000 rpm (revolutions per minute). The supernatant is collected and transferred into a test tube. The sample is subjected to evaporation under a stream of nitrogen (N2) at a temperature of 40° C. so as to form a dry extract.
1 mL of acetonitrile is added to the tube containing the dry extract so as to dissolve it. The acetonitrile solution is washed twice successively with 1 mL of hexane. The lipid-free extract is dried under a stream of nitrogen (N2) at a temperature of 40° C. and is then taken up in 0.5 mL of methanol and dissolved by vortex stirring. 0.5 mL of ultra-pure (Milli-Q) water is then added. The sample is vortex-homogenized.
1 mL of dichloromethane, then 1 mL of methanol, then 1 mL of ultra-pure (Milli-Q) water are passed through an Oasis HLB 1 cc cartridge (WAT094225, Waters). The lipid-free liver extract (1 mL of MeOH/Milli-Q H2O) containing difethialone is then loaded onto the top of the cartridge so that the liver extract penetrates through the cartridge by gravity on contact with the solid phase. 1 mL of washing solution formed from methanol and ultra-pure water in a 90/10 volume proportion is then loaded onto the top of the cartridge. The cartridge is dried by suction under vacuum connected to the bottom of the cartridge. 1 mL of eluting solution formed from dichloromethane and methanol in a 90/10 volume proportion is then loaded onto the top of the cartridge and an eluate comprising difethialone is collected at the bottom of the cartridge. The solvent of the eluate is evaporated off under a stream of nitrogen (N2) at a temperature of 40° C. The sample is taken up in 0.5 mL of acetonitrile and the acetonitrile solution containing difethialone is filtered through a 0.2 μm filter.
The composition is analysed by high-pressure liquid chromatography on a chiral column as described in point A2) above.
A solution of a mixture of homo-stereoisomer (DFN-Homo-SI) and of hetero-stereoisomer (DFN-Hetero-SI) of difethialone in a mixture of vegetable oil and 5% DMSO is administered by tube-feeding (“per os”) to 8-week-old coumaphen-sensitive rats (male and female Rattus norvegicus) weighing about 200 g. The molar proportion of homo-stereoisomer is 40% and the molar proportion of hetero-stereoisomer is 60%. Each configurational stereoisomer of difethialone is formed from a racemic mixture of the two enantiomers of said corresponding configurational stereoisomer.
On D0, a tube-feeding solution is administered to each rat so that the amount of difethialone ingested by each rat is about 3.4 mg per kilogram of rat. To avoid haemorrhage, the rats are also treated daily by subcutaneous administration of a dose of vitamin K1 (as haemorrhage antidote) at a rate of […] per 200 g of live rat weight.
At 4 hours (H+4), 9 hours (H+9), 24 hours (H+24), 120 hours (H+120), 168 hours (H+168) and 216 hours (H+216) after tube-feeding, three male rats and three female rats anaesthetized beforehand with isoflurane are euthanized, the liver of the euthanized rats is removed, the difethialone is then extracted from the liver, the amount of each of the configurational stereoisomers of difethialone is assayed, the area under the peaks in the chromatogram obtained is measured and each configurational stereoisomer is quantified by comparison with a calibration curve. […]

[2] = format: in vivo, Rattus norvegicus; conditions: 48 hours after tube-feeding; about 3.4 mg/kg difethialone per os (40% homo-, 60% hetero-stereoisomer, each racemic); mean of six rats
[3] = 4 hours after tube-feeding, daily vitamin K1

Compound	Hepatic content [1, 3] [ng/g]	Hepatic content ([1]; 9 hours after tube-feeding) [ng/g]	Hepatic content ([1]; 24 hours after tube-feeding) [ng/g]	Hepatic content ([1]; 120 hours after tube-feeding) [ng/g]	Hepatic content ([1]; 168 hours after tube-feeding) [ng/g]	Hepatic content ([1]; 216 hours after tube-feeding) [ng/g]	Hepatic content [2] [ng/g]
Oc1c(C2CC(c3ccc(-c4ccc(Br)cc4)cc3)Cc3ccccc32)c(=S)oc2ccccc12 (single isomer, unassigned) [DFN-Hetero-dextro, 3-(4′-bromobiphenyl-4-yl)-1-(4-hydroxythiocoumarin-3-yl)-1,2,3,4-tetrahydronaphthalene]	10589.5	12155.5	8102	5431.5	3011	4030.5	7974.5
Oc1c(C2CC(c3ccc(-c4ccc(Br)cc4)cc3)Cc3ccccc32)c(=S)oc2ccccc12 (single isomer, unassigned) [DFN-Homo-dextro, 3-(4′-bromobiphenyl-4-yl)-1-(4-hydroxythiocoumarin-3-yl)-1,2,3,4-tetrahydronaphthalene]	4566	4692.5	1243.5	192.5	129	77.5	720.5
